The results in this text go back to ChEMBL document CHEMBL4406796, “Anti-cancer effects of cinnamon: Insights into its apoptosis effects” (Eur J Med Chem, 2019).

Assay [1] relates to HeLa. Briefly: Antiproliferative activity against human HeLa cells after 24 hrs by MTT assay relative to control. It counts as functional.
The test system of assay [2] is HeLa. Briefly: Antiproliferative activity against human HeLa cells at 150 uM after 24 hrs by MTT assay relative to control. It counts as functional. A general note: Tetrazolium dyes change colour on reduction, which living cells bring about.
For assay [3], the system named is PC-3. As to the kind of experiment: Cytotoxicity against human PC3 cells after 72 hrs by CellTiter one aqueous solution assay. In kind it is functional, cell-based. Conditions: PC-3, 72 h.
Assay [4] concerns PC-3. As to the kind of experiment: Cytotoxicity against human PC3 cells at 41 ug/ml after 72 hrs in presence of 0.5 uM 2ME2 by CellTiter one aqueous solution assay relative to control. In kind it is functional.
Assay [5] is filed under the species Mus musculus. Briefly: Down-regulation of c-Myc mRNA expression in mouse relative to control. It counts as functional.
Assay [6] concerns HeLa. Briefly: Growth inhibition of human HeLa cells at 10 uM to 1 mM after 24 hrs by MTT assay relative to control. In kind it is functional.
For assay [7], the species on record is Mus musculus. As to the kind of experiment: Down-regulation of H-ras mRNA expression in mouse relative to control. It counts as functional.
In assay [8] the test system is HeLa. As to the kind of experiment: Antiproliferative activity against human HeLa cells at 15 mM after 24 hrs by MTT assay relative to control. In kind it is functional.
Assay [9] concerns PC-3. Briefly: Cytotoxicity against human PC3 cells at 0.5 uM after 72 hrs in presence of 41 ug/ml eugenol by CellTiter one aqueous solution assay relative to control. In kind it is functional.

As a reminder, the IC50 is the midpoint of a concentration-inhibition curve. Low values mean greater potency in that assay, high ones weaker potency in that assay. As for `C=CCc1ccc(O)c(OC)c1` [EUGENOL], the Activity with HeLa [1] amounted to 84%; in the assay on HeLa [2], 47%; with PC-3 [4] it was 50%; in the assay listed under Mus musculus [5], 40%; in the assay filed under Mus musculus [7], 28%. Also, half-maximal inhibition with PC-3 [3] (IC50) was put at 1 µM. Besides, the “growth inhibition (GI)” value with HeLa [6] is 50%.

Turning to `Nc1ccn([C@@H]2O[C@H](CO)[C@@H](O)C2(F)F)c(=O)n1` [GEMCITABINE], the Activity in the assay on HeLa [1] came out at 73%; in the assay with HeLa [8], 47%.

For the compound `COc1cc2c(cc1O)CC[C@@H]1[C@@H]2CC[C@]2(C)[C@@H](O)CC[C@@H]12` [2-METHOXYESTRADIOL], the Activity with PC-3 [9] is reported as 50%. In the assay on PC-3 [3], this compound displayed a half-inhibitory concentration (IC50) of 82 µg/mL.
